These results are taken from publication PMC4108065, “Inflammation and pancreatic cancer: molecular and functional interactions between S100A8, S100A9, NT-S100A8 and TGFβ1” (Cell Communication and Signaling : CCS, 2014).

Assay type in all cases: cell-based, human
For experiment [1], the system named is IκBα phosphorylation at Ser32. Kind of experiment: NF-κB signaling, western blot of IκBα phosphorylation in PDAC cell lines. As to conditions: BxPC3, Capan1, MiaPaCa2, Panc1, 10 min, 10 nM S100A8, S100A9, S100A8/A9, 50 nM NT-S100A8, 0.02 ng/ml TGFβ1. As to the method: (§1) Five million cells were seeded in Petri dishes (ø 10 cm) and cultured for 24 hours in their respective complete media prior to starting the experiments. Cells remained non-stimulated (negative control) or were stimulated with 50 mU insulin (positive control) (Insuman Rapid, Sanofi-Aventis, Deutschland, GmbH) for 10 min; in parallel, experimental cells were stimulated with 50 nM NT-S100A8, 0,02 ng/ml TGFβ1 (ProSpec-Tany TechnoGene), 10 nM S100A8 and 10 nM S100A9 alone or combined for 10 min. Following stimulations, Petri dishes were immediately transferred into an ice bath, and the cells were washed twice with cold PBS, re-suspended in 100 μl of cold lysis buffer [20 mM Tris–HCl, pH 7.5, 150 mM NaCl, 1 mM EDTA, 1% Triton-X 100, 50 mM NaF, 10 mM Na4P2O7,1 mM Na3VO4, and 10% protease inhibitor cocktail (Sigma Aldrich SRL, Milano, Italy)]. Lysates were centrifuged for 10 min at 14,000 rpm at 4°C and, in the supernatants, total proteins were measured using the Bio-Rad protein assay (Bio-Rad Laboratories, Milano, Italy). Each experiment was performed at least in triplicate.
(§2) For each sample, 40 μg proteins were electrophoresed through 4–12% NuPAGE®NovexBis-Tris SDS–PAGE Gel or 3-8% NuPAGE®NovexTris-Acetate SDS–PAGE Gel (Invitrogen S.R.L., Life Technologies, Monza, Italy) and electrophoretically transferred to Nitrocellulose Membrane (iBlot® Transfer Stack, Invitrogen S.R.L.) by means of the iBlotTMDry Blotting System (Invitrogen S.R.L.). Following incubation for 1 hour in a blocking buffer [5% low fat powder milk re-suspended in PBS-T (PBS with 0.1% Tween-20)], membranes were incubated overnight at 4°C with the primary antibodies [antiphospho IkB-α (Ser^32) (Santa Cruz Biotechnology, Inc., Santa Cruz, CA, USA); anti-phospho-Akt (Ser^473), anti-phospho-Akt (Thr^308), anti-Akt and anti-phospho-S6 Ribosomal Protein (Ser^235/236), anti-cleaved Caspase-3, anti-phospho-Stat3 Tyr^705, anti-β-actin, anti-phospho mTOR (Ser^2448, Ser^2481) (Cell Signaling Technology, Danvers, MA, USA); anti-RAGE (R&D Systems, Minneapolis, MN, USA) ] diluted 1:5000 (β-actin), 1:2000 (mTOR, cleaved Caspase-3, Stat3) or 1:3000 (all the others) in the blocking buffer. The blots, washed three times in PBS-T for 15 min, were incubated with […] anti-rabbit (Cell Signaling Technology) or anti-goat (Sigma Aldrich) secondary antibodies and then washed three times in PBS-T for 15 min and developed with the ECL Advance Western Blot Detection Kit (GE Healthcare Technologies, Milan, Italy).

Experiment [2] relates to mTOR Ser2481, Ser2448 and S6 Ribosomal Protein phosphorylation. Description: mTOR signaling, western blot in PDAC cell lines. The following applies: BxPC3, Capan1, MiaPaCa2, Panc1, 10 min, 10 nM S100A8, S100A9, S100A8/A9, 50 nM NT-S100A8, 0.02 ng/ml TGFβ1. As to the method: as §1, §2
Another experiment relates to Capan1. Kind of experiment: XTT cell viability assay, Capan1. As to conditions: 48 hours, TGFβ1 0.02 ng/ml, NT-S100A8 50 nM, S100A8 10 nM, S100A9 10 nM, alone or combined, at least three independent experiments in quadruplicate. As to the method:
(§3) BxPC3, Capan1, MiaPaCa2, Panc1 and BxPC3-SMAD4+ cells were seeded (2000 cells per well) in 96-well cell culture plates and cultured in complete media for 24 hours. Media were then replaced with fresh cell culture media in absence (control) or in presence of TGFβ1 (0.02 ng/ml) and NT-S100A8 (50 nM), alone or combined or in absence (control) or in presence of TGFβ1 (0.02 ng/ml), S100A8 (10 nM) and S100A9 (10 nM) alone or combined. Cell growth was assessed after 48 hours using the XTT cell viability test (Roche, Milano, Italy). At least three independent experiements, each made in quadruplicate, were run. The results were expressed as percentage with respect to the median Abs450nm of control cells run in the same experimental set.

Experiment [3] deals with Akt phosphorylation sites Thr308 and Ser473. Kind of experiment: Akt signaling, western blot in PDAC cell lines. The following applies: BxPC3, Capan1, MiaPaCa2, Panc1, 10 min; for Akt Ser473 phosphorylation: 10 nM S100A8, S100A9, S100A8/A9, 50 nM NT-S100A8; for Akt Thr308 phosphorylation: 10 nM S100A8, S100A9, S100A8/A9, 50 nM NT-S100A8, 0.02 ng/ml TGFβ1. As to the method: as §1, §2

In a further experiment the test system is MiaPaCa2 [Ca2+]i. Kind of experiment: Intracellular calcium, fluo-4 epifluorescence, MiaPaCa2. The following applies: for [Ca2+]i variation per minute per cell: MiaPaCa2, 200 to 480 second interval, vs control cells, One-Way ANOVA, Bonferroni; for effect on the [Ca2+]i decrement induced by TGFβ1: MiaPaCa2, combined with 0.02 ng/ml TGFβ1, 200 to 480 second interval. The protocol:
(§4) BxPC3 and MiaPaCa2 cells, seeded (80 × 10^3 cells) on coverslips that had been inserted within each well of six well culture plates, were kept in their respective complete media for 24 hours. Coverslips were then incubated for 10 min at 37°C with 3 μM fluo-4 AM (Invitrogen S.R.L.) in an imaging buffer containing 137 mM NaCl, 5 mM KCl, 1.2 mM MgCl2, 0.44 mM KH2PO4, 4.2 mM NaHCO3, 5 mM glucose, and 20 mM HEPES pH 7.4. The cells were carefully washed with the imaging buffer after its removal. Calcium oscillations were then analyzed by means of an inverted epifluorescence microscope equipped with a top stage incubator (Tokai Hit INU-F1, Tokai Hit, Shizuoka-Ken, Japan) in order to keep cells in the optimal culturing environment. As an illumination source, we used a mercury arc discharge lamp and selected excitation and emission wavelengths with an FITC filter cube (EX 465–495 DM505 EM 515–555 nm). Use was made of an 60X1.45NA objective (Nikon Instruments S.P.A., Firenze, Italy) and, in order to minimize phototoxicity and photobleaching, a back-thinned electron multiplied CCD camera C9100-13 Imagem (Hamamatsu Photonics Italia S.R.L., Milano, Italy). After the first minute, required to achieve optimal culture conditions, intracellular fluorescence was continuously monitored (3 frames/sec) for 12 min. In all experiments, […], the cells were maintained in imaging buffer for the first 2 minutes, after which they were stimulated with 10 nM S100A8, 10 nM S100A9 and 50 nM NT-S100A8, alone or in combination with 0.02 ng/ml TGFβ1. For all stimuli, additions were made directly to the microscope chamber without interrupting the recording. The fluorescence signal was quantified by measuring the mean pixel value of a manually selected cellular area for each frame of the image stack using the HCimage system (Hamamatsu Photonics Italia S.R.L.). For all the experimental conditions, at least 3 independents sets of experiments were performed.

For a further experiment, the system named is BxPC3 [Ca2+]i. Description: Intracellular calcium, fluo-4 epifluorescence, BxPC3. As to conditions: for alterations in [Ca2+]i: BxPC3, single treatment, monitored for 500 seconds, 0.02 ng/ml TGFβ1, 10 nM S100A8, 10 nM S100A9. The protocol:
as §4

For another experiment, the system named is MiaPaCa2. Kind of experiment: XTT cell viability assay, MiaPaCa2. As to conditions: 48 hours, TGFβ1 0.02 ng/ml, NT-S100A8 50 nM, S100A8 10 nM, S100A9 10 nM, alone or combined, at least three independent experiments in quadruplicate. The protocol: as §3

With “S100A8: inflammatory calcium binding protein S100A8 (ProSpec-Tany TechnoGene)”, the “IκBα phosphorylation (Ser32)” value in experiment [1] is “reduced IκBα phosphorylation in Capan1, MiaPaCa2 and Panc1, not in BxPC3”. In experiment [2], the “mTOR Ser2448 phosphorylation” value is recorded as “induced mTOR Ser^2448 phosphorylation in all cell lines”; the “mTOR Ser2481 phosphorylation” value is “Ser^2481 in BxPC3 and Capan1”. Also, the “Capan1 % to Control Mean± SEM” value with Capan1 is given as 96.22 ± 2.91 % to Control. Also, in experiment [3], the “Akt Ser473 phosphorylation” value is “reduced Akt Ser^473 phosphorylation in Capan1, MiaPaCa2 and Panc1 cells”; the “Akt Thr308 phosphorylation” value was “induced in BxPC3, and reduced in the other cell lines”. In the experiment with MiaPaCa2 [Ca2+]i, the “[Ca2+]i variation per minute per cell” value is “significant decrement of [Ca^2+]i” and the “effect on the [Ca2+]i decrement induced by TGFβ1” value was “partly counteracted”. For the same substance, in the experiment on BxPC3 [Ca2+]i, the “alterations in [Ca2+]i” value was “did not determine evident alterations in [Ca^2+]i”. Moreover, the “MiaPaCa2 % to Control Mean± SEM” value with MiaPaCa2 is listed as 102.13± 4.93 % to Control.
As for “NT-S100A8: 14 N-terminal aminoacid peptide of S100A8, isolated from PDAC tissues (MLTELEKALNSIID; UniProt P05109 1-14, looked up, fragment)”, the “IκBα phosphorylation (Ser32)” value in experiment [1] was “reduced IκBα phosphorylation in Capan1, MiaPaCa2 and Panc1, not in BxPC3”. Further, in experiment [2], the “mTOR Ser2448 phosphorylation” value is “inducing Ser^2481 and Ser^2448 phosphorylation in all cell lines”; the “mTOR Ser2481 phosphorylation” value is “inducing Ser^2481 and Ser^2448 phosphorylation in all cell lines”. For the same substance, in experiment [3], the “Akt Ser473 phosphorylation” value is recorded as “augmented in the same cell lines”; the “Akt Thr308 phosphorylation” value is “reduced in Capan1 and MiaPaCa2”. The “[Ca2+]i variation per minute per cell” value with MiaPaCa2 [Ca2+]i was “significant decrement of [Ca^2+]i”. Besides, the “effect of TGFβ1 on the induced [Ca2+]i oscillations” value with BxPC3 [Ca2+]i (BxPC3, combination with 0.02 ng/ml TGFβ1) is “synergized and accelerated by TGFβ1”.
On to “TGFβ1: transforming growth factor beta 1 (ProSpec-Tany TechnoGene)”, for which, in experiment [1], the “IκBα phosphorylation (Ser32)” value is on record as “no significant effects”. In experiment [2], the “mTOR Ser2448 phosphorylation” value is “inducing Ser^2481 and Ser^2448 phosphorylation in all cell lines”; the “mTOR Ser2481 phosphorylation” value is “inducing Ser^2481 and Ser^2448 phosphorylation in all cell lines”. Besides, in the experiment on Capan1, the “Capan1 % to Control Mean± SEM” value is on record as 104.31 ± 2.68 % to Control. Moreover, in experiment [3], the “Akt Thr308 phosphorylation” value was “inhibited Akt Thr^308, but not Akt Ser^473 phosphorylation in Smad4 expressing cells”. The “[Ca2+]i variation per minute per cell” value with MiaPaCa2 [Ca2+]i is “significant decrement of [Ca^2+]i”. Besides, the “alterations in [Ca2+]i” value in the experiment on BxPC3 [Ca2+]i was “did not determine evident alterations in [Ca^2+]i”. Besides, the “MiaPaCa2 % to Control Mean± SEM” value in the experiment with MiaPaCa2 is 102.11 ± 4.65 % to Control.
“S100A9: inflammatory calcium binding protein S100A9, S100A8 binding partner”: the “IκBα phosphorylation (Ser32)” value in experiment [1] is “reduced IκBα phosphorylation in Capan1, MiaPaCa2 and Panc1, not in BxPC3”. Moreover, in experiment [2], the “mTOR Ser2448 phosphorylation” value was “induced mTOR Ser^2448 phosphorylation in all cell lines”; the “mTOR Ser2481 phosphorylation” value was “Ser^2481 in BxPC3 and Capan1”. Also, the “Capan1 % to Control Mean± SEM” value with Capan1 is given as 103.07 ± 2.90 % to Control. In experiment [3], the “Akt Ser473 phosphorylation” value was “reduced Akt Ser^473 phosphorylation in Capan1, MiaPaCa2 and Panc1 cells”; the “Akt Thr308 phosphorylation” value was “induced in BxPC3, and reduced in the other cell lines”. Further, in the experiment on MiaPaCa2 [Ca2+]i, the “effect on the [Ca2+]i decrement induced by TGFβ1” value is on record as “completely reverted”. In addition, in the experiment on BxPC3 [Ca2+]i, the “alterations in [Ca2+]i” value was “did not determine evident alterations in [Ca^2+]i”. In addition, in the experiment with MiaPaCa2, the “MiaPaCa2 % to Control Mean± SEM” value was 104.38± 4.09 % to Control.
